Where a SMILES comes first, the peptide text is derived from it. Bridges are numbered along the chain shown (N, C = ends).
Tests used:
GC-C receptors = molecular target: T1, GC-C receptors (Homo sapiens, UniProt P25092); assay: Cyclic GMP stimulation assay in CaCo-2 cells; format: cell-based; settings: CaCo-2 monolayers; for Effect of PDE inhibitor on stimulation of cGMP production by SP-304: in combination with SP-304, 30 minutes
T1 construct: Fully differentiated CaCo-2 cells are known to express high density of GC-C receptors; host or cells: CaCo-2 human colon carcinoma cells, differentiated monolayers
T1 sequence (P25092 24-1073): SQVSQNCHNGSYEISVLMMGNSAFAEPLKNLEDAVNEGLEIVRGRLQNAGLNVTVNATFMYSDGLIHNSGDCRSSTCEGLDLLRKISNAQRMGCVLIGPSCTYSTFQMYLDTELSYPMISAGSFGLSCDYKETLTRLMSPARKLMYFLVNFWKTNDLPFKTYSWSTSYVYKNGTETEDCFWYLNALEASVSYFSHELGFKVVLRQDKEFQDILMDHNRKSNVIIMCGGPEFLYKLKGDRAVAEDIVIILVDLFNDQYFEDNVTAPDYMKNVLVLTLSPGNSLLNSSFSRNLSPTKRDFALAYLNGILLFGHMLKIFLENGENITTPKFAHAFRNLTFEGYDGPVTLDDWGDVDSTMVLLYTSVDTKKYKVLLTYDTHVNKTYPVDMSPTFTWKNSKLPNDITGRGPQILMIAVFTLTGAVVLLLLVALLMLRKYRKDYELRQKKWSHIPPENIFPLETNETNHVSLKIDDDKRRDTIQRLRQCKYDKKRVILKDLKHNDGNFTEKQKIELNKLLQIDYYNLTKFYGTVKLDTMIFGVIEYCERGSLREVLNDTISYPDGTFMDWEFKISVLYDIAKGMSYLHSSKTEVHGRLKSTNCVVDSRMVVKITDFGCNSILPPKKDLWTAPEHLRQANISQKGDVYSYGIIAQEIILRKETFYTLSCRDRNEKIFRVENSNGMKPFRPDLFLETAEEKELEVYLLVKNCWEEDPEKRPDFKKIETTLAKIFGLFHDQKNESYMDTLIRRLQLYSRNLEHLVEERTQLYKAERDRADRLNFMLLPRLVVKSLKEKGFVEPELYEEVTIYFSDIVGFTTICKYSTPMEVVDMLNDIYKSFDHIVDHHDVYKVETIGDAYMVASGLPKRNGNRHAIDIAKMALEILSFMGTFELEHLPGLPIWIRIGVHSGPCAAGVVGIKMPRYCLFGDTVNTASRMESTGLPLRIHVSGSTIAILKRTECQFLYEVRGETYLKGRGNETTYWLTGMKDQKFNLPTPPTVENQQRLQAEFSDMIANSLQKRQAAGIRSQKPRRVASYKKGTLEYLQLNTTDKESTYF
Protocol: (§1) CaCo-2 cell culture: CaCo-2, human colon carcinoma cells, were obtained from American Type Culture Collection (ATCC) and cultured in DMEM medium containing 10% fetal bovine serum, 1% penicillin-streptomycin, 2 mM L-glutamine, 1% non-essential-amino acids. Cells were fed fresh medium every third day and grown for 16-21 days to form completely differentiated monolayer. Fully differentiated CaCo-2 cells are known to express high density of GC-C receptors.
Cyclic GMP stimulation assay: Biological activity of the GCRA peptides was assayed as previously reported (5). Briefly, 16 days grown monolayers of CaCo-2 cells in 24-well plates were washed twice with 250 μl of DMEM containing 50 mM HEPES (pH 7.4), pre-incubated at 37° C. for 10 min with 250 μl of DMEM containing 50 mM HEPES (pH 7.4) and 1 mM isobutylmethylxanthine (IBMX), followed by incubation with GCRA peptides (0.1 nM to 10 μM) for 30 min. The medium was aspirated, and the reaction was terminated by the addition of 3% perchloric acid. Following centrifugation, and neutralization with 0.1 N NaOH, the supernatant was used directly for measurements of cGMP using an ELISA kit (Caymen Chemical, Ann Arbor, Mich.)
Monolayers were treated 500 μL of serum free DMEM for 30 minutes with either SP-304 alone or in combination with phosphodiesterase inhibitors such as, 3-isobutyl-1-methylxanthine (IBMX), sulindac sulfone (SS) and zaprinast (ZAP). After the incubation, monolayers were lysed with 250 μL of 3% perchloric acid. The lysate was neutralized with 0.1 N NaOH and used for ELISA to determine the concentration of cGMP. The assay procedure was essentially the same as described (5). […] Since CaCo-2 cells overexpress phosphodiesterases (PDE), GC-C agonists are used in combination with PDE inhibitors to measure the actual stimulatory effect of GC-C agonists.

[1] = simulated gastric fluid (SGF) with Pepsin (0.0133 g/liter), Lysozyme, Porcine bile, pH 2.0±0.1; settings: 37° C., up to 120 min
[2] = tested on: patients with chronic idiopathic constipation (CIC); assay: Plecanatide Phase IIb/III trial in patients with chronic idiopathic constipation; format: in vivo, human
Protocol: The randomized, double-blind, placebo-controlled, repeat-dose, dose-ranging study was designed to determine whether plecanatide could increase the number of complete spontaneous bowel movements (CSBM's) and impact other parameters such as stool consistency, straining and time to first bowel movement in patients with CIC. The 12-week study, which included 951 CIC patients at 113 clinical sites in the United States, evaluated 3 doses of plecanatide (0.3, 1.0, 3.0 mg) plus a placebo arm.

animal models = assay: Animal models, oral administration of plecanatide; format: in vivo
[3] = In vitro proteolytic stability using simulated gastric fluid (SGF) digestion, HPLC analysis; format: in vitro ADME; settings: 0 min vs 120 min, HPLC (FIG. 1B)
Protocol: FIG. 1B is a schematic representation of the results of HPLC chromatographic analyses of SP-304 samples after incubation with SGF at indicated times (0 min in the upper panel and 120 min in the lower panel). […] The arrows indicate the elution position of SP-304.
The stability of the GRCA peptide according to the invention is determined in the presence of simulated gastric fluid (SGF). GRCA peptide (final concentration of 8.5 mg/ml) is incubated in SGF (Proteose peptone (8.3 g/liter; Difco), D-Glucose (3.5 g/liter; Sigma), NaCl (2.05 g/liter; Sigma), KH2PO4 (0.6 g/liter; Sigma), CaCl2 (0.11 g/liter), KCl (0.37 g/liter; Sigma), Porcine bile (final 1× concentration 0.05 g/liter; Sigma) in PBS, Lysozyme (final 1× concentration 0.10 g/liter; Sigma) in PBS, Pepsin (final 1× concentration 0.0133 g/liter; Sigma) in PBS). SGF is made on the day of the experiment and the pH is adjusted to 2.0±0.1 using HCl or NaOH as necessary. After the pH adjustment, SGF is sterilized filtered with 0.22 μm membrane filters. SP-304 (final concentration of 8.5 mg/ml) is incubated in SGF at 37° C. for 0, 15, 30, 45, 60 and 120 min in triplicate aliquots. Following incubations, samples are snap frozen in dry ice then are stored in a −80° C. freezer until they are assayed in duplicate.

CaCo-2 cells = assay: 3H-taurocholate (bile acid) absorption by CaCo-2 monolayer; format: cell-based, human; settings: for Absorption of 3H-taurocholate (kinetics experiment): 16-day grown CaCo-2 monolayers, up to 60 minutes incubation; for Absorption of 3H-taurocholate (kinetics experiment) / Absorption of 3H-taurocholate (bar graph experiment): 30 minutes pre-incubation; for Absorption of 3H-taurocholate (bar graph experiment): CaCo-2 cells grown for 20 days, 60 minutes incubation, quadruplets
Protocol: as §1
Preparation of ^3H-taurocholate Cocktail: Phosphatidyl choline was dissolved in ethanol to make 50 mM stock solution. Calculated volume of the stock solution of phosphatidyl choline was mixed with 3H-taurocholate in a plastic tube and dried under argon gas at 80° C. The dried material was dissolved in transport buffer to get the final concentration of phosphatidyl choline (0.5 mM) and of 3H-taurocholate 10 μCi/mL.
CaCo-2 cells were grown in 24-well plates for 16 days to allow complete monolayer formation and cell differentiation. Completely differentiated monolayers were then pre-incubated with 250 μL of the transport buffer (HEPES 25 mM, NaCl 120 mM, KCl 5.4 mM, CaCl2 1.8 mM and MgSO4, pH 7.5) containing either SP-304 alone or in combination with PDE inhibitors such as IBMX, SS and ZAP. The monolayers were pre-incubated with transport buffer containing either of the following: vehicle (control), 1 mM 8-bromo-cGMP, 500 μM SS, 500 μM ZAP, 1 μM SP-304, 0.1 μM SP-304+500 μM SS and 1 μM SP-304+500 μM ZAP. After the indicated pre-incubation time, 50 μL of ^3H-taurocholate (1 μCi) cocktail was added and cells were incubated for an additional 60 minutes, washed three times with ice cold PBS. Cells were lysed with 0.5 N NaOH for 4 hours and radioactivity in the lysate was counted in a scintillation counter.
16-day grown monolayers of CaCo-2 cells in 24-well plates were pre-incubated with transport buffer containing the compounds as indicated in the figure for 30 minutes. After the pre-incubation, 1 μCi of ^3H-taurocholate cocktail was added in each well and cells were further incubated for 60 minutes. Cells were washed three times with ice cold PBS and lysed with 0.5 N NaOH and lysates were counted for radioactivity in a scintillation counter. Results are expressed as an average of three determinations. Results on the x-axis were plotted in logarithmic scale.
After the pre-incubation, 1 μCi of ^3H-taurocholate cocktail was added in each well and cells were further incubated for 60 minutes. Cells were washed three times with ice cold PBS and lysed with 0.5 N NaOH and lysates were counted for radioactivity in a scintillation counter. This experiment was run in quadruplets and results are expressed as mean±SD.
The procedure used in this experiment was essentially the same except that a lower concentration of ZAP (250 μM) in combination experiments with SP-304.

[4] = In vitro proteolytic stability using simulated intestinal fluid (SIF) digestion, HPLC analysis; format: in vitro ADME
Protocol: FIG. 2B is a schematic representation of the results of HPLC chromatographic analyses of SP304 samples after incubation with (A) heat inactivated SIF for 300 min or with (B) SIF for 120 min. […] Arrows indicate the position of SP-304.
Arrow indicates the elution position of SP-304 peptide. […] These new peptide peaks represent the possible degradation products of SP-304.
Arrow indicates the elution position of SP-332 peptide.
Arrows indicate the elution position of SP-333.
The stability of the GRCA peptide is also evaluated against digestion with simulated intestinal fluid (SIF). SIF solution was prepared by the method as described in the United States Pharmacopoeia, 24th edition, p2236. The recipe to prepare SIF solution is as described below. The SIF solution contains NaCl (2.05 g/liter; Sigma), KH2PO4 (0.6 g/liter; Sigma), CaCl2 (0.11 g/liter), KCl (0.37 g/liter; Sigma), and Pacreatin 10 mg/ml. The pH is adjusted to 6 and the solution is filter sterilized. A solution of SP-304 (8.5 mg/ml) is incubated in […] at 37° C. for 0, 30, 60, 90, 120, 150 and 300 min in triplicate aliquots. Following incubations, samples are removed and snap frozen with dry ice and stored in a −80° C. freezer until they are assayed in duplicate. F
The integrity of GRCA peptide is evaluated by HPLC by essentially using the method described for SGF digestion.

[5] = Phase IIb/III clinical study, oral, CIC

Molecule: CC(C)Cn1c(=O)n(C)c(=O)c2[nH]cnc21 [IBMX, 3-isobutyl-1-methylxanthine]
- Effect of PDE inhibitor on stimulation of cGMP production by SP-304 (GC-C receptors): synergistic effects

Molecule: CCCOc1ccccc1-c1nc2nn[nH]c2c(=O)[nH]1 [ZAP, zaprinast]
- Production of cGMP among the PDE inhibitors (GC-C receptors; in combination with SP-304): maximum production of cGMP
- Effect of PDE inhibitor on stimulation of cGMP production by SP-304 (GC-C receptors): synergistic effects

Molecule: Asn^1-Asp^2-Glu^3-Cys^4-Glu^5-Leu^6-Cys^7-Val^8-Asn^9-Val^10-Ala^11-Cys^12-Thr^13-Gly^14-Cys^15-Leu^16
- not cleaved [1]: major peak did not change after 120 min

Molecule: CC1=C(CC(=O)O)c2cc(F)ccc2/C1=C\c1ccc(S(C)(=O)=O)cc1 [SS, sulindac sulfone]
- Effect of PDE inhibitor on stimulation of cGMP production by SP-304 (GC-C receptors): synergistic effects

Molecule: CC(C)C[C@H](NC(=O)[C@@H]1CSSC[C@@H]2NC(=O)[C@H](CC(C)C)NC(=O)[C@H](CCC(=O)O)NC(=O)[C@@H](NC(=O)[C@H](CCC(=O)O)NC(=O)[C@H](CC(=O)O)NC(=O)[C@@H](N)CC(N)=O)CSSC[C@H](NC(=O)[C@H](C)NC(=O)[C@H](C(C)C)NC(=O)[C@H](CC(N)=O)NC(=O)[C@H](C(C)C)NC2=O)C(=O)N[C@@H]([C@@H](C)O)C(=O)NCC(=O)N1)C(=O)O [SP-304, Asn^1-Asp^2-Glu^3-Cys^4-Glu^5-Leu^6-Cys^7-Val^8-Asn^9-Val^10-Ala^11-Cys^12-Thr^13-Gly^14-Cys^15-Leu^16] (H-NDECELCVNVACTGCL-OH; disulfide 4-12, 7-15; N-terminus assumed)
- Overall responder rate ([2]; 3 mg dose, 12-week treatment, CIC patients (placebo 10.7%), p=0.009): 19%
- Mean increase in CSBMs over the 12-week treatment period ([2]; 3 mg dose, CIC patients, p<0.001): 2.13
- Incidence of diarrhea ([2]; 3 mg, CIC patients (placebo incidence 1.3%)): 9.7%
- Key secondary endpoints ([2]; Phase IIb/III clinical study, CIC patients): statistically significant improvements
- Primary and key secondary endpoints of the study [2, 5]: met the primary and key secondary endpoints
- Tolerability [2, 5]: well tolerated
- GI inflammation (animal models): ameliorates GI inflammation
- Intestinal secretion (animal models): promotes intestinal secretion
- HPLC major peak after incubation with SGF [3]: resistant to SGF digestion
- Absorption of 3H-taurocholate (kinetics experiment) (CaCo-2 cells): inhibited
- Absorption of 3H-taurocholate (bar graph experiment) (CaCo-2 cells): inhibited
- Inhibition in absorption of 3H-taurocholate, SP-304 alone (CaCo-2 cells; SP-304 0.1 μM alone): did not produce much inhibition
- Inhibition of 3H-taurocholate absorption, SP-304 in combination with ZAP (CaCo-2 cells; SP-304 0.1 μM in combination with ZAP (250 μM)): greater effect on inhibition
- HPLC peak after incubation with SIF for 60 min ([4]; 0 vs 60 min, HPLC (FIG. 7D)): completely vanished
- HPLC peak after incubation with SIF for 120 min ([4]; 120 min, HPLC (FIG. 2B, 7E, 7F)): completely converted SP-304 into another peptide
- cGMP production by CaCo-2 cells in response to stimulation (GC-C receptors; 30 minutes): produced cGMP

Molecule: Nc1nc2c(nc(Br)n2[C@@H]2O[C@@H]3COP(=O)(O)O[C@H]3[C@H]2O)c(=O)[nH]1 [8-Br-cGMP, 8-bromo-cGMP, reference compound]
- Absorption of 3H-taurocholate (kinetics experiment) (CaCo-2 cells): inhibited
- Absorption of 3H-taurocholate (bar graph experiment) (CaCo-2 cells): inhibited
